Measurements as given in patent US20200345746A1, “Oxazine Derivative for Use in the Prevention of Alzheimer's Disease in at Risk Patents” (Novartis AG, priority 2016, published 2020).
“And” between values parts separate entries of the source, which are not always exact repeats. Equal values may be shown once.

Key:
Aβ40 = Aβ40 in C57BL/6 mouse brain after chronic dosing (MSD assay); type: in vivo; settings: for Average Aβ40 brain: mean ± SD, n = 4
Description: (§1) Frozen mouse forebrains were weighed and homogenized in 9 volumes (w/v) of ice-cold TBS-Complete (20 mM Tris-HCl pH 7.4, 137 mM NaCl, 1× Complete [Protease Inhibitor Cocktail Tablets: 1 836 145, Roche Diagnostics GmbH, Penzberg, Germany]) by sonication (90% duty cycle, output control 5, 40-55 pulses, [Sonifier 450, Branson]). After homogenization several 50 μl aliquots were prepared for analysis and were stored at −80° C.
Human Aβ peptide (1-40) trifluoroacetate salt (H 1194.1000, Bachem, Bubendorf, Switzerland) was used as calibration curve for Aβ1-40. It was solubilized in water-free DMSO (41647, Fluka) at a concentration of 1 mg/ml for approximately 30 min at room temperature (RT) and then visually checked for complete solubilization.
Endogenous Aβ40 in mice was determined with the Meso Scale Discovery (MSD) 96-well MULTI-ARRAY human/rodent (4G8) Aβ40 Ultrasensitive Assay (#K110FTE-3, Meso Scale Discovery, Gaithersburg, USA). The assay was performed according to the manufacturer's instructions except for the calibration curve and the sample preparations. TritonX-100 (TX-100) soluble Aβ40 was extracted from forebrain with 1% TX-100 using a 50 μl aliquot of each 1:10 forebrain homogenate, mixed with 50 μl 2% TX-100 in TBS complete (20 mM Tris-HCl pH 7.4, 137 mM NaCl, 1× Complete [Protease Inhibitor Cocktail Tablets: 1 836 145, Roche Diagnostics GmbH, Penzberg Germany]) to reach a final concentration of 1% TX-100 and a 1:20 forebrain dilution. The samples were incubated for 15 min on ice and vortexed every 5 min. The samples were ultra-centrifuged (100000×g, 4° C., 15 min) and 50 μl of the clear supernatants were transferred to fresh tubes. For the Aβ40 assay the supernatants were further diluted 1:5 in 3% Blocker A solution (from kit) to a final forebrain dilution of 1:100 and applied to the plate.
The calibration curve was prepared in a corresponding dilution of 1% Blocker A solution spiked with synthetic Aβ1-40 peptide (1.56-100 pg/ml) except for non-transgenic mouse brain samples: In this case, the calibration curve was prepared in a correspondingly diluted APP knockout mouse forebrain spiked with synthetic Aβ1-40 peptide (1.56-100 pg/ml). For all samples and standards 25 μl were applied per well. For each determination duplicate wells were performed. The mean values from the duplicate wells were used for calculations.
At the last day of the study, groups of n=4 mice were sacrificed 4 hours and 24 hours after having received the last dose. Forebrain was separated, and analyzed for β-amyloid peptide 1-40. Concentrations of Aβ40 for the vehicle and treatment groups are summarized in Table 6 and visualised in FIG. 2. The percent of reduction versus the corresponding vehicle treated group was calculated.

in vivo [1] = settings: APOE4-TR, mouse; for AUC(0-t): po
Aβ42 = assay: 3-month dose-ranging study: Aβ42 in CSF; type: in vivo, human; settings: for Aβ42 % change from baseline, Mean (SD) / Aβ42 % change from baseline, Median: CSF, 3 months
From the text: This study is listed in ClinicalTrials.gov under the NCT02576639 Identifier code.
The primary purpose of this study was to expand on previous safety and tolerability data obtained over 2-week and 4-week duration in the first in human study and thereby allow initiation of future long-term efficacy trials in subjects at risk of AD. In addition, data relevant for Pharmacokinetic/Pharmacodynamic modeling was obtained in order to support dose selection decisions for future efficacy studies.
In the completed first-in-human and 3-month dose-ranging safety and tolerability clinical studies described in Examples 5 and 6, Aβ concentrations in CSF were obtained by means of lumbar punctures before the first dose (baseline) and respectively after 2 weeks and 3 months of multiple dosing. ApoE4 genotype also was obtained in the subjects who consented. The percent change from baseline in Aβ40 and Aβ42 concentrations was calculated in subjects who took the study treatment and had no major protocol deviation with potential impact on the evaluation of the pharmacodynamic effect. Tables 18 to 21 below provide summary statistics of the percent change from baseline by treatment group and ApoE genotype (E4 heterozygotes versus E4 non-carriers). Only one subject with CSF data was E4 homozygote (from the 3-month dose-ranging safety and tolerability study).

sAPPα = assay: Triton TX-100 soluble sAPPα in APP23 mouse brain; type: in vivo; settings: APP23 mice
Description: as §1
Brain homogenates were extracted with 1% Triton X-100 in buffer and the resulting supernatant was considered to represent soluble forms of APP metabolites. In addition to Aβ40 and 42, we determined the N-terminal APP fragments sAPPα (direct cleavage product of α-secretase) and sAPPβ (Swe) (direct product of BACE1 cleavage). […] Since no change in the APP expression and Aβ generation is known to happen during this age, it is assumed that the increased values in the vehicle group (18-20 mo old) arise from “leakage” out of the Aβ deposits (which increase several fold, see below).

in vivo [2] = settings: C57BL/6, mouse; for AUC(0-t): po, AUCblood (AUC0-24 h)
From the text: Blood samples were used to analyze whole-blood compound levels and were obtained either from tail-vein during the in-life part into EDTA tubes (CB300, Sarstedt, Germany) or from trunk blood at the day of necropsy into EDTA Eppendorf tubes (Milian S A, CatNoTOM-14, Fisher Scientific, Wohlen, Switzerland), or into serum tubes (CB300Z, Sarstedt, Nümbrecht, Germany).
Brain was removed immediately after decapitation, rinsed with saline and sectioned sagitally down the midline. The left half of the cerebellum was used to analyze compound level and was placed into a glass tube (Chromacol, 125×5-SV T051, Welwyn Garden City, United Kingdom), weighed and frozen in dry-ice, the left half of the forebrain (without olfactory bulb) was used for Aβ analysis, and was frozen on a metal plate on dry ice and placed into protein Lo-bind tube (003 0108.116, Eppendorf, Hamburg, Germany).
Ventral and dorsal skin were taken to analyze compound level, weighed and frozen on dry-ice.
Brain samples were mixed with 2 volumes of KH2PO4 buffer and homogenized using the Covaris® device. Skin samples were mixed with approx. 6-fold volumes of methanol/water and homogenized using a Precellys tube. Either 30 μL of blood, brain or skin homogenate were spiked with a structurally related internal standard and subsequently mixed with an at least 6-fold excess volume acetonitrile for protein precipitation. The supernatant was injected directly into the LC/MS/MS system for analysis.
For tissue exposure, only data at 4 and 24 h were available.

Structure (SMILES): C[C@@]1(c2nc(NC(=O)c3ncc(C(F)(F)F)cc3Cl)ccc2F)CO[C@@](C)(C(F)(F)F)C(N)=N1 [Compound 1, N-(6-((3R,6R)-5-amino-3,6-dimethyl-6-(trifluoromethyl)-3,6-dihydro-2H-1,4-oxazin-3-yl)-5-fluoropyridin-2-yl)-3-chloro-5-(trifluoromethyl)picolinamide]
- Average Aβ40 brain (Aβ40; C57BL/6, 8 μmol/kg q.d. 8 weeks, 4 h after last dose): 432.8 ± 140.5 pg/g
- Average Aβ40 brain (Aβ40; C57BL/6, 8 μmol/kg q.d. 8 weeks, 24 h after last dose): 1098.6 ± 148.7 pg/g
- % reduction vs vehicle (brain Aβ40) (Aβ40; C57BL/6, 8 μmol/kg, 4 h after last dose): 67.1%
- % reduction vs vehicle (brain Aβ40) (Aβ40; C57BL/6, 8 μmol/kg, 24 h after last dose): 25% and 25.3%
- Mini AU EC (brain Aβ40) (Aβ40; C57BL/6, 8 μmol/kg, after last dose): 46.2%
- Average Aβ40 brain (Aβ40; C57BL/6, 50 μmol/kg q.d. 8 weeks, 4 h after last dose): 93.4 ± 83.7 pg/g
- Average Aβ40 brain (Aβ40; C57BL/6, 50 μmol/kg q.d. 8 weeks, 24 h after last dose): 233.8 ± 36.5 pg/g
- % reduction vs vehicle (brain Aβ40) (Aβ40; C57BL/6, 50 μmol/kg, 4 h after last dose): 92.9%
- % reduction vs vehicle (brain Aβ40) (Aβ40; C57BL/6, 50 μmol/kg, 24 h after last dose): 84.1%
- Mini AU EC (brain Aβ40) (Aβ40; C57BL/6, 50 μmol/kg, after last dose): 88.5%
- Aβ40 reduction over the whole 24 hour time course (Aβ40; C57BL/6, 50 μmoles/kg, after last dose): 80-90%
- exposure reduction 4h/24h (in vivo [1]): 2-5 fold
- AUCbrain (AUC0-24 h) (in vivo [1]; 3 umol/kg): 8.67 µmol·h/kg
- AUCbrain (AUC0-24 h) (in vivo [1]; 10 umol/kg): 15.83 µmol·h/kg
- AUCbrain (AUC0-24 h) (in vivo [1]; 30 umol/kg): 49.82 µmol·h/kg
- AUC(0-t) (in vivo [1]; 3 umol/kg): 1.56 µM·h
- AUC(0-t) (in vivo [1]; 10 umol/kg): 4.86 µM·h
- AUC(0-t) (in vivo [1]; 30 umol/kg): 14.9 µM·h
- Aβ42 % change from baseline, Mean (SD) (Aβ42; 2 mg, E4 heterozygotes): −23 (9) %
- Aβ42 % change from baseline, Median (Aβ42; 2 mg, E4 heterozygotes): −23%
- Aβ42 % change from baseline, Mean (SD) (Aβ42; 2 mg, E4 non-carriers): −24 (9) %
- Aβ42 % change from baseline, Median (Aβ42; 2 mg, E4 non-carriers): −21%
- Aβ42 % change from baseline, Mean (SD) (Aβ42; 10 mg, E4 heterozygotes): −66 (7) %
- Aβ42 % change from baseline, Median (Aβ42; 10 mg, E4 heterozygotes): −63%
- Aβ42 % change from baseline, Mean (SD) (Aβ42; 10 mg, E4 non-carriers): −65 (5) %
- Aβ42 % change from baseline, Median (Aβ42; 10 mg, E4 non-carriers): −66%
- Aβ42 % change from baseline, Mean (SD) (Aβ42; 35 mg, E4 heterozygotes): −83 (5) %
- Aβ42 % change from baseline, Median (Aβ42; 35 mg, E4 heterozygotes): −85%
- Aβ42 % change from baseline, Mean (SD) (Aβ42; 35 mg, E4 non-carriers): −81 (6) %
- Aβ42 % change from baseline, Median (Aβ42; 35 mg, E4 non-carriers): −83%
- Aβ42 % change from baseline, Mean (SD) (Aβ42; 85 mg, E4 heterozygotes): −88 (2) %
- Aβ42 % change from baseline, Median (Aβ42; 85 mg, E4 heterozygotes): −88%
- Aβ42 % change from baseline, Mean (SD) (Aβ42; 85 mg, E4 non-carriers): −90 (2) %
- Aβ42 % change from baseline, Median (Aβ42; 85 mg, E4 non-carriers): −90%
- Aβ42 in CSF percent change from baseline, Difference (90% CI) Cmpd 1-Placebo (Aβ42; month 3, 2 mg QD): −21.24 (−24.28, −18.21) %
- Aβ42 in CSF percent change from baseline, LSmean (SE) (Aβ42; month 3, 2 mg QD): −24.00 (1.277) %
- Aβ42 in CSF percent change from baseline, Difference (90% CI) Cmpd 1-Placebo (Aβ42; month 3, 10 mg QD): −61.39 (−64.47, −58.31) %
- Aβ42 in CSF percent change from baseline, LSmean (SE) (Aβ42; month 3, 10 mg QD): −64.15 (1.308) %
- Aβ42 in CSF percent change from baseline, Difference (90% CI) Cmpd 1-Placebo (Aβ42; month 3, 35 mg QD): −79.73 (−82.73, −76.73) %
- Aβ42 in CSF percent change from baseline, LSmean (SE) (Aβ42; month 3, 35 mg QD): −82.49 (1.250) %
- Aβ42 in CSF percent change from baseline, Difference (90% CI) Cmpd 1-Placebo (Aβ42; month 3, 85 mg QD): −86.62 (−89.76, −83.49) %
- Aβ42 in CSF percent change from baseline, LSmean (SE) (Aβ42; month 3, 85 mg QD): −89.38 (1.348) %
- sAPPα change vs vehicle (sAPPα; 0.03 g/kg vs vehicle): +44%
- increase in sAPPα (sAPPα; 0.3 g/kg dose): 3 fold
- sAPPα change vs vehicle (sAPPα; 0.3 g/kg vs vehicle): +279.8%
- Kp (in vivo [2]): 3.2
- AUC(0-t) (in vivo [2]; 8 umol/kg): 3.43 µM·h
- AUC(0-t) (in vivo [2]; 50 umol/kg): 28.9 µM·h
